From patent US5268389A, “Thiocarboxylate ester compounds compositions containing the same” (priority 1990, dated 1993) come the findings set out here.

What is called EC50 is the midpoint of the concentration-response curve.

Each structure is given as a SMILES string. Several values for one entry are separate records, joined by “and”; a condition that tells them apart may be missing. Equal values may be shown once.

Assay [1] deals with HIV. Kind of assay: microbe, parasite or virus in culture. The assay is classed as cell-based. To be noted: CEM cells; for EC50: free HIV, read-out: Activity of Anti-HIV Compounds (EC50), CEMV. On the procedure:
(§1) The compounds of Examples were tested for anti-AIDS activity by subjecting them to standard National Cancer Institute ("NCI") in vitro screening procedures. In carrying out each test, two blanks were run. In the first blank, HIV and a culture of a standard human cell line were incubated together to measure the infectivity of the virus. The viability of the cells was measured after holding for six or seven days. In an "effective" test, most cells were infected before the holding period was complete.
In the second blank, the cell line culture and the compound being tested (but not virus) were incubated together to measure the toxicity of the drug to the cellline. The viability of the cells was measured as a function of concentration of the compound, after holding for seven days. Typically, the cells survive at low compound concentrations, but at some higher concentration, toxicity of the compound is manifested and the cells die. The concentration of the test compound that results in 50% inhibition of cell growth is defined as the IC50.
(§2) Finally, the protective effects of the test compounds were measured. Each cell culture and test compound were incubated with the virus and the viability of the cells was measured as a function of compound concentration after holding for six or seven days. If the compound is active in protecting the cells against the virus, there is typically low cell viability until an effective concentration of the test compound is reached. At this point, cell viability increases steadily toward 100% unless the toxic effect of the compound (as measured in the second blank) takes effect. The concentration of the test compound that results in 50% "control," i.e., a 50% reduction of the viral cytopathic effect, is defined as the EC 50. The therapeutic index TI50 is calculated as IC50/EC50.
(§3) Values of test compound concentrations required for between 20 and 50% reduction of the viral cytopathic effect can also be determined. Such compounds are classified as moderately active.
(§4) The compounds were tested to determine their reduction of HIV cytopathic effect on the human cell lines CEM and MT2. Tests were done by innoculating these cell lines either with free HIV (V) or with a virus Previously cultured with host cells (C). Thus, in Table III the designation CEMV means CEM line cells innoculated with free virus and MT2C means MT2 cells innoculated with cultured viral infected MT2 cells. In some cases the compound was also tested on a cell line together with a sub-effective amount of the known HIV viricide AZT. This is done to test possible synergistic effects. Such a test on the CEM line is denoted CEMZ.
1) T4 lymphocytes (CEM cell line) are exposed to HIV at a virus to cell ratio of approximately 0.05 and plated along with non-infected control cells in 96-well microtiter plates.
2) Each candidate agent is dissolved in dimethyl sulfoxide (unless otherwise indicated), then diluted 1:200 in cell culture medium. Further dilutions (five-fold) are prepared before adding to an equal volume of medium containing either infected or noninfected cells.
3) Cultures are incubated at 37° C. in a 5% carbon dioxide atmosphere for seven days (if six days the CEMV test is identified as CEM-6).
(§5) 4) The tetrazolium salt, XTT, is added to all wells, and cultures are incubated to allow formazan color development by viable cells.
(§6) 5) Individual wells are analyzed spectrophotometrically to quantity formazan production, and in addition are viewed microscopically for detection of viable cells and confirmation of protective activity.
(§7) 6) Drug-treated virus-infected cells are compared with drug-treated non-infected cells and with other appropriate controls (untreated infected and untreated non-infected cells, drug-containing wells without cells, etc.) on the same plate.
7) A determination of activity is made. […]

The subject of assay [2] is HIV. The experiment in a line: Reduction of HIV cytopathic effect, CEM-IW protocol. Format: cell-based. To be noted: asterisk: CEMIW protocol; for EC50: CEM cells, drug added before virus, read-out: Activity of Anti-HIV Compounds (EC50), CEM-IW; for Activity class of Anti-HIV Compounds, CEM-IW: inhibition of viral cytopathic effect. On the procedure: as §1, §2, §3, §4
The aforementioned identifiers are used when a batch was prepared and samples inserted into the wells. In procedures calling for the addition of the drug (or no drug) and the CEM uninfected cells to each well, followed by the subsequent addition of the HIV virus, the protocol is designated as CEM-IW.
as §5, §6, §7
Asterisks indicate the CEMIW protocol.
For orientation: Protection from cytopathic effect is a common read-out in antiviral testing.

Setting [3] is: Human immunodeficiency virus 1, CCRF-CEM.

On to `CCOC(=O)c1cc(NC(=O)C2=C(C)OCCS2)ccc1Cl` [Compound 4, Ethyl 2-chloro-5-[[(5,6-dihydro-2-methyl-1,4-oxathiin-3-yl)carbonyl]amino]benzoate], for which the EC50 is 300 nM and 200 nM in the assay with HIV [1]; 400 nM in the assay on HIV [1] (setting [3]).

`CCCOC(=O)c1cc(NC(=O)C2=C(C)OCCS2)ccc1Cl` [Compound 5, Propyl 2-chloro-5-[[(5,6-dihydro-2-methyl-1,4-oxathiin-3-yl)carbonyl]amino]benzoate]: the EC50 was found to be 60 nM in the assay with HIV [1] and 70 nM with HIV [1] (setting [3]). Turning to `CCCCOC(=O)c1cc(NC(=O)C2=C(C)OCCS2)ccc1Cl` [Compound 6, Butyl 2-chloro-5-[[(5,6-dihydro-2-methyl-1,4-oxathiin-3-yl)carbonyl]amino]benzoate], the EC50 in the assay on HIV [1] (setting [3]) is 100 nM. As for `CCC1=C(C(=O)Nc2ccc(Cl)c(C(=O)OC(C)C)c2)SCCO1` [Compound 7, 1-Methylethyl 2-chloro-5-[[(2-ethyl-5,6-dihydro-1,4-oxathiin-3-yl)carbonyl]amino]benzoate], the EC50 is 700 nM in the assay on HIV [1] and 840 nM in the assay with HIV [1] (setting [3]). `CC1=C(C(=O)Nc2cccc(C#N)c2)SCCO1` [Compound 9, N-(3-Cyanophenyl)-5,6-dihydro-2-methyl-1,4-oxathiin-3-carboxamide]: the “Activity class of Anti-HIV Compounds, CEMV” value in the assay on HIV [1] (inhibition of viral cytopathic effect, free virus) was “MA (moderate activity (MA), that is, inhibition between approximately 20 and 50%)”. As to `CCOC(=S)Nc1ccc(Cl)c(C(=O)OC(C)C)c1` [Compound 33], the EC50 is 660 nM in the assay with HIV [2] (setting [3]); 680 nM and 730 nM in the assay with HIV [2].

`CCCOC(=S)Nc1ccc(Cl)c(C(=O)OC(C)C)c1` [Compound 35]: the EC50 with HIV [2] (setting [3]) was 240 nM; with HIV [2] it was 180 nM and 200 nM.

As for `CCCCCOC(=S)Nc1ccc(Cl)c(C(=O)OC(C)C)c1` [Compound 36], the concentration for a half-maximal effect (EC50) with HIV [2] (setting [3]) is 1040 nM; in the assay with HIV [2], 1380 nM and 1320 nM and 890 nM.

Turning to `C=CCOC(=S)Nc1ccc(Cl)c(C(=O)OC(C)C)c1` [Compound 37], the values for the EC50 with HIV [2] (setting [3]) and in the assay with HIV [2] were 320 nM and 200 nM, respectively. Take `CC(C)OC(=O)c1cc(NC(=S)OC2C=CCCC2)ccc1Cl` (centres unmarked) [Compound 39]: the half-maximal effective concentration (EC50) in the assay with HIV [2] (setting [3]) is 1090 nM; with HIV [2], 1470 nM and 1750 nM and 1460 nM.

On to `CC(C)OC(=O)c1cc(NC(=S)OCC2CCCO2)ccc1Cl` (centres unmarked) [Compound 43], for which, in the assay on HIV [2], the “Activity class of Anti-HIV Compounds, CEM-IW” value (from here on “Activity class … CEM-IW”) was “MA (moderate activity (MA), that is, inhibition between approximately 20 and 50%)”. For `CCCSC(=Nc1ccc(Cl)c(C(=O)OC(C)C)c1)OC(C)C` [Compound 52], the EC50 with HIV [2] (setting [3]) was 2440 nM; in the assay on HIV [2] it was 2470 nM and 1940 nM. As for `Cc1oc(C)c(C(=S)Nc2ccc(Cl)c(C(=O)OC(C)C)c2)c1C` [Compound 58, 1-Methylethyl 2-chloro-5-[(2,4,5-trimethyl 3-furanyl)thioxomethyl]amino1benzoate], the EC50 with HIV [2] (setting [3]) is 870 nM; in the assay on HIV [2] it was 750 nM and 1060 nM and 900 nM. Consider `Cc1occc1C(=S)Nc1ccc(Cl)c(C(=O)OC(C)C)c1` [Compound 59, 1-methylethyl 2-chloro-5-[(2-methyl-3-furanyl)thioxomethyl]amino benzoate], for which the half-maximal effective concentration (EC50) with HIV [2] (setting [3]) was found to be 43 nM; in the assay with HIV [2], 37 nM.

Take `CC(C)OC(=O)c1cc(NC(=S)c2ccccc2)ccc1Cl` [Compound 61, Benzoic acid, 2-chloro-5-(phenylthioxomethyl) amino-, 1-methylethyl ester]: the EC50 is 390 nM in the assay on HIV [2] (setting [3]); 620 nM and 420 nM and 450 nM in the assay on HIV [2].

For `COc1ccccc1C(=S)Nc1ccc(Cl)c(C(=O)OC(C)C)c1` [Compound 65], the EC50 in the assay with HIV [2] (setting [3]) was 476 nM; in the assay with HIV [2] it was 404 nM and 588 nM and 509 nM.

`CC(C)OC(=O)c1cc(NC(=O)c2ccccc2I)ccc1Cl` [Compound 82, 1-Methylethyl 2-chloro-5-[(2-iodobenzoyl)amino]benzoate]: the EC50 is 2670 nM in the assay on HIV [2] (setting [3]); 2560 nM and 2150 nM and 2880 nM in the assay with HIV [2]. Turning to `COc1ccccc1C(=O)Nc1ccc(Cl)c(C(=O)OCC2CCCO2)c1` (centres unmarked) [Compound 83, Tetrahydro-2-furanylmethyl 2-chloro-5-[(2-methoxybenzoyl)-amino]benzoate], in the assay on HIV [2], the “Activity class … CEM-IW” value was “MA (moderate activity (MA), that is, inhibition between approximately 20 and 50%)”. Still for that read-out and setting: next, `COc1ccccc1NC(=O)Nc1ccc(Cl)c(C(=O)OC(C)C)c1` [Compound 99]: “MA (moderate activity (MA), that is, inhibition between approximately 20 and 50%)”; `CC(C)OC(=O)c1cc(NC(=O)OC2CCCCC2)ccc1Cl` [Compound 102]: “MA (moderate activity (MA), that is, inhibition between approximately 20 and 50%)”; `CC1=C(C(=O)Nc2ccc(O)c(C(=O)OC(C)C)c2)SCCO1` [Compound 112, 1-Methylethyl 5-[[(5,6-dihydro-2-methyl-1,4-oxathiin-3-yl)-carbonyl]amino]-2-hydroxybenzoate]: “MA (moderate activity (MA), that is, inhibition between approximately 20 and 50%)”.

`CC(=O)Nc1ccccc1C(=O)Nc1ccc(Cl)c(C(=O)OC(C)C)c1` [Compound 114, 1-Methylethyl 5-[(2-acetamidobenzoyl)amino]-2-chlorobenzoate]: the “Activity class … CEM-IW” value in the assay with HIV [2] was “MA (moderate activity (MA), that is, inhibition between approximately 20 and 50%)”. On the same count and under the same terms, next, `CC(C)OC(=O)c1cc(NC(=S)OCc2ccccc2)ccc1Cl` [Compound 117]: “MA (moderate activity (MA), that is, inhibition between approximately 20 and 50%)”; `COC(=O)c1ccccc1S(=O)(=O)NC(=O)Nc1ccc(Cl)c(C(=O)OC(C)C)c1` [Compound 130]: “MA (moderate activity (MA), that is, inhibition between approximately 20 and 50%)”; `CC(C)OC(=O)c1cc(NC(=NS(=O)(=O)c2ccccc2)c2ccccc2F)ccc1Cl` [Compound 131]: “MA (moderate activity (MA), that is, inhibition between approximately 20 and 50%)”.

For `CCOC(=O)c1cc(NC(=S)OC(C)C)ccc1SC` [Compound 145], the concentration for a half-maximal effect (EC50) in the assay on HIV [2] (setting [3]) is 260 nM; in the assay with HIV [2], 373 nM and 243 nM and 422 nM. Consider `CC1=C(C(=O)Nc2ccccc2C(=O)Nc2ccc(Cl)c(C(=O)OC(C)C)c2)SCCO1` [Compound 147], for which the 50% effective concentration (EC50) in the assay with HIV [2] (setting [3]) turned out to be 590 nM; in the assay on HIV [2] it was 608 nM. For `CCOC(=O)c1cc(NC(=S)OC(C)C)ccc1Cl` [Compound 148], the “Activity class … CEM-IW” value in the assay with HIV [2] is “MA (moderate activity (MA), that is, inhibition between approximately 20 and 50%)”. For `CCOC(=O)c1cc(NC(=S)OC(C)C)ccc1C` [Compound 150], the EC50 is 210 nM with HIV [2] (setting [3]); 230 nM and 296 nM and 329 nM with HIV [2]. `CCC(CC)OC(=O)c1cc(NC(=S)OC(C)C)ccc1Cl` [Compound 151]: the EC50 is 95.4 nM in the assay with HIV [2] (setting [3]); 84.2 nM and 77.7 nM and 53.7 nM in the assay on HIV [2].

Consider `CCC(C)OC(=O)c1cc(NC(=S)OC(C)C)ccc1Cl` (centres unmarked) [Compound 152], for which the EC50 in the assay on HIV [2] (setting [3]) is 71.7 nM; in the assay on HIV [2], 41.7 nM and 36.8 nM and 57.1 nM.

As for `CCCCOC(=O)c1cc(NC(=S)OC(C)C)ccc1Cl` [Compound 153], the EC50 in the assay on HIV [2] (setting [3]) is 71.9 nM; in the assay with HIV [2] it was 42.6 nM and 53 nM. On to `CCCOC(=O)c1cc(NC(=S)OC(C)C)ccc1Cl` [Compound 154], for which, in the assay on HIV [2] (setting [3]), the concentration for a half-maximal effect (EC50) amounted to 44.3 nM. In the case of `CC(=O)Oc1ccc(NC(=O)C2=C(C)OCCS2)cc1C(=O)OC(C)C` [Compound 157], the “Activity class … CEM-IW” value in the assay with HIV [2] is “MA (moderate activity (MA), that is, inhibition between approximately 20 and 50%)”. As for `CCC(=O)Oc1ccc(NC(=O)C2=C(C)OCCS2)cc1C(=O)OC(C)C` [Compound 158], the half-maximal effective concentration (EC50) with HIV [2] (setting [3]) is 6100 nM; with HIV [2], 6770 nM and 4490 nM and 3620 nM.
